Experimental data published in US20250074910A1, “MENIN INHIBITOR AND USE THEREOF” (HITGEN INC., priority 2021, published 2025).

How the values were obtained:
[1] = test system: MV4-11; test: Cell proliferation inhibition (CellTiter-Glo), MV4-11; assay type: cell-based; settings: MV4-11 cells
Description: (§1) Test Example 2: Test of the Inhibitory Ability of Menin-MLL Interaction Inhibitors on Cell Proliferation
(§2) The inhibitory ability of the compounds of the present disclosure on the proliferation of tumor cell lines (including cell lines containing MLL fusion protein such as MV4-11, MOLM-13, THP-1 and NOMO-1, control cell lines without MLL fusion protein such as HL-60, K562 and MOLM-16, and cell lines containing NPM1 mutation such as OCI-AML3) was evaluated by using the cell viability analysis method. The cells were plated in 96-well plates at a certain concentration (e.g., 5,000-20,000 cells/well), and then an equal volume of culture medium containing 2 times the final concentration of the test compound (the final concentration ranging 10 from 1 nM to 10 μM) was added. The plates were placed in an incubator and cultured at 37° C. and 5% CO2 for 72-168 h. Before the test, an equal volume of CellTiter-Glo® Luminescent reagent was added, and the plate was incubated at room temperature for 10 min before detection using an ELISA reader (BMG LABTECH). The data were analyzed using GraphPad Prism software to obtain the IC50 value and compound fitting curve. The control compound 1 was prepared by referring to the method of Example 64 in WO2017214367.

[2] = test system: OCI-AML3; test: Cell proliferation inhibition (CellTiter-Glo), OCI-AML3 (NPM1 mutation); assay type: cell-based; settings: OCI-AML3 cells
Description: as §1, §2

[3] = test system: MOLM-13; test: Cell proliferation inhibition (CellTiter-Glo), MOLM-13; assay type: cell-based; settings: MOLM-13 cells
Description: as §1, §2

[4] = molecular target: Menin/MLL-4-43 peptide interaction (Homo sapiens (Human), UniProt O00255); test: Menin-MLL interaction inhibitory activity assay (fluorescence polarization competition); assay type: binding; settings: FITC-MLL4-43-peptide, Menin recombinant protein
Chain of Menin/MLL-4-43 peptide interaction (O00255 whole entry, species assumed): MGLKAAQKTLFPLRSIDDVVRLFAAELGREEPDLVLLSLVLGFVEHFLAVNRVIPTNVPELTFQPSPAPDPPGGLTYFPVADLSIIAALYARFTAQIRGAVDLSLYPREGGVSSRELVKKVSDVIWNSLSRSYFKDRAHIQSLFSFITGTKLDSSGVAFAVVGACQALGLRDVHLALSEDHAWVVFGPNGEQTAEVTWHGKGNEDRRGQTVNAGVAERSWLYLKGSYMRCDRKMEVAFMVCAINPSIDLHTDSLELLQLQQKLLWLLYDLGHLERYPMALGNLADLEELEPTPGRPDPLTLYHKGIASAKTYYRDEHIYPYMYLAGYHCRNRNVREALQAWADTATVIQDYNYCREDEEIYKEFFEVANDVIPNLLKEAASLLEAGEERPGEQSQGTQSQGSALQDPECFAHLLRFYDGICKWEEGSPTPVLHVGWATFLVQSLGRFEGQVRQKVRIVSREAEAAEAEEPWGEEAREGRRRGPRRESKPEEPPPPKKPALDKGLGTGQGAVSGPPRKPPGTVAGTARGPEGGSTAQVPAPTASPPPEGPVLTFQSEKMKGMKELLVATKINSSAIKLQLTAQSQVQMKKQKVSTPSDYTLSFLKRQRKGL
Description: Test Example 1: Menin-MLL Interaction Inhibitory Activity Assay
The inhibition of Menin/MLL-4-43 peptide interaction by small molecule inhibitors was quantitatively detected by fluorescence polarization competition assay. The experiment was performed in a 384-well plate (Corning, Cat #3575) using a reaction buffer consisting of 50 mM Tris, pH 7.5, 50 mM NaCl, and 1 mM DTT. A 40 μL reaction system included 10 μL of 8 nM Menin recombinant protein and 10 μL of the test compound at different concentrations. The compound was pre-incubated with Menin protein for 15 min, and then 20 μL of 10 nM FITC-MLL4-43-peptide was added. After incubation on a shaker at 25° C. for 60 min, the fluorescence polarization signal (FP 485 520 520) was read using BMG PHERAStar detection. The experimental data was analyzed and processed by GraphPad Prism 6 software to obtain the IC50 value. The control compound 1 was prepared by referring to the method of Example 64 in WO2017214367.

[5] = Pharmacokinetics test in mouse; assay type: in vivo, ICR mice; settings: mice, p.o. 10 mg/kg; for AUC(0-t) / half-life / Cmax: male, ICR, mouse, plasma, po, 10 mg/kg; for Cmax: read-out: Cmax; for F, %: 1 mg/kg for intravenous injection
Source text: Test Example 4. In Vivo Pharmacokinetic Study
Test purpose: To determine the pharmacokinetic properties of some of the example compounds of the present disclosure in mice, rats and dogs after single intravenous injection (i.v.) and oral gavage (i.g.) administration by LC-MS/MS method.
Research methods: An appropriate amount of compound was weighed and prepared into a transparent clear solution of a certain concentration using 0.9% sodium chloride injection and 1.5 equivalents of 1M HCl aqueous solution based on the molar number of the compound. After SPF male ICR mice, SPF male SD rats, and male beagle dogs were fasted overnight, the test compound solution was given by intravenous injection and oral gavage at the corresponding dose. Anticoagulated whole blood of the test animals was collected at 5 min, 15 min, 30 min, 1 h, 2 h, 4 h, 8 h, and 24 h after administration, and plasma was separated. Plasma samples at each time point were detected by LC-MS/MS, and the plasma concentration of the compound was determined by the standard curve correction method. Phoenix WinNonlin 5.2 non-compartmental model was used to calculate the pharmacokinetic parameters of terminal elimination half-life (t½), blood peak concentration (Cmax), area under the concentration-time curve (AUC), clearance (CL), and bioavailability (F %), which was directly obtained from the serum concentration results. Blood drug concentration and pharmacokinetic parameters are expressed as mean±standard deviation (X±SD). The specific test protocols for each species are as follows.
Pharmacokinetics Test in Mouse
Test animals: SPF male ICR mice, weighing 25-30 g, 12 mice/compound, purchased from Chengdu Dossy Experimental Animal Co., Ltd.
Test design: On the day of the test, ICR mice were randomly divided into groups according to body weight, fasted but with free water for 12-14 h one day before administration, and fed 2 h after administration.
Preparation of test compound solution: The concentration of the test compound for oral gavage was 1 mg/mL. An appropriate amount of compound was weighed and prepared into a 1 mg/mL transparent clear solution using 0.9% sodium chloride injection and 1.5 equivalents of 1M HCl aqueous solution. The concentration of the test compound for intravenous injection was 0.2 mg/mL. The 1 mg/mL transparent clear solution was diluted to a concentration of 0.2 mg/mL using 0.9% sodium chloride injection. The volume of 1 M HCl solution added was calculated as: volume of 1 M HCl solution added […]=weighed amount of compound (mg)/molecular weight×1.5×1000. The amount added during preparation must not exceed the calculated value.
The test substance was administered as follows: intravenous injection: 1 mg/kg of dose, 5 mL/kg of volume, 6 mice; oral gavage: 10 mg/kg of dose, 10 mL/kg of volume, 6 mice.
Sample collection: Blood (40-50 μl) was collected in anticoagulant tubes sprayed with EDTA-K2 through the orbital venous plexus at 5 min, 15 min, 30 min, 1 h, 2 h, 4 h, 8 h, and 24 h after administration, and centrifuged at 10,000 rpm for 20 min within 1 h (the blood was saved on wet ice before and after centrifugation). The supernatant, which was plasma, was collected and frozen in a refrigerator at −20° C. or below for LC-MS/MS analysis of Full PK of male ICR mice (2 mice per group, 4 blood collection time points per mouse, crossover).

GI50 ([1]; 72 h) [nM]	GI50 ([2]; Homo sapiens, OCI-AML-3, 168 h) [nM]	GI50 ([3]; Homo sapiens, MOLM-13, 168 h) [nM]	IC50 [4] [nM]	AUC(0-t) [5] [ng·h/mL]	half-life [5] [min]	Cmax [5] [ng/mL]	F, % [5] [%]	GI50 ([2]; 168 h) [nM]	GI50 ([3]; 168 h) [nM]	GI50 ([1]; Homo sapiens, MV4-11, 72 h) [nM]	Structure (SMILES)
324	66.5	47.4	29	–	–	–	–	–	–	–	CCN(C(=O)c1cc(F)ccc1Oc1cncnc1N1CC2(CCN(CC3CC4CCC3CC43CCC(=O)N3)CC2)C1)C(C)C (single isomer, unassigned) [Example 3-1]
55.2	31.2	63.3	33.4	7770	230	2010	72	–	–	–	CC(C)N(C(=O)c1cc(F)ccc1Oc1cncnc1N1CC2(CCN(CC3CC4CCC3CC43CCC(=O)N3)CC2)C1)C(C)C (single isomer, unassigned) [Example 13-1b]
41.2	199	122	14.8	–	–	–	–	–	–	–	CCN(C(=O)c1cc(F)ccc1Oc1nncnc1N1CC2(CCN(C[C@H]3CC[C@]4(CC3)CC(C)C(=O)N4)CC2)C1)C(C)C (single isomer, unassigned) [Example 40-1]
90	–	–	48.7	–	–	–	–	80.6	137	–	[2H]C([2H])([2H])C1C[C@]2(CC[C@@H](CN3CCC4(CC3)CN(c3ncnnc3Oc3ccc(F)cc3C(=O)N(C(C)C)C(C)C)C4)CC2)NC1=O (single isomer, unassigned) [Example 43-2]
–	–	–	48.8	–	–	–	–	60.5	111	16.7	CC(C)N(C(=O)c1cc(F)ccc1Oc1nncnc1N1CC2(CCN(CC3CCC4(CC3)CC3(CC3)C(=O)N4)CC2)C1)C(C)C (single isomer, unassigned) [Example 44-1]
9.7	–	–	7.9	–	–	–	–	26.4	30.4	–	CC(C)N(C(=O)c1cc(F)ccc1Oc1nncnc1N1CC2(CCN(CC3CCC4(CC3)CC3(CC3)C(=O)N4)CC2)C1)C(C)C (single isomer, unassigned) [Example 44-2]
–	–	88.9	21.8	–	–	–	–	61.7	–	26.4	CCN(C(=O)c1cc(F)ccc1Oc1cncnc1N1CC2(CCN(CC3CC4CCC3CC43COC(=O)N3)CC2)C1)C(C)C (single isomer, unassigned) [Example 50-1b]
20.5	–	–	21.1	–	–	–	–	56.4	125	–	CCN(C(=O)c1cc(F)ccc1Oc1cncnc1N1CC2(CCN(CC3CC4CCC3CC43COC(=O)N3)CC2)C1)C(C)C (single isomer, unassigned) [Example 50-2a]
26.4	–	–	61.1	–	–	–	–	119	93.3	–	CCN(C(=O)c1cc(F)ccc1Oc1cncnc1N1CC2(CCN(CC3CC4CCC3CC43COC(=O)N3)CC2)C1)C(C)C (single isomer, unassigned) [Example 50-2b]
–	68.5	101	35.3	–	–	–	–	–	–	21.1	CC(C)N(C(=O)c1cc(F)ccc1Oc1cncnc1N1CC2(CCN(CC3CC4CCC3CC43COC(=O)N3)CC2)C1)C(C)C (single isomer, unassigned) [Example 51-1]
18.8	–	–	47.6	–	–	–	–	35.3	93.3	–	CC(C)N(C(=O)c1cc(F)ccc1Oc1cncnc1N1CC2(CCN(CC3CC4CCC3CC43COC(=O)N3)CC2)C1)C(C)C (single isomer, unassigned) [Example 51-2]
–	18.5	36.2	7.8	–	–	–	–	–	–	9.6	CC(C)N(C(=O)c1cc(F)ccc1Oc1nncnc1N1CC2(CCN(C[C@H]3CC[C@]4(CC3)CC(C(C)(C)O)C(=O)N4)CC2)C1)C(C)C (single isomer, unassigned) [Example 59-1a]
–	277	580	–	5290	90.6	2480	79	–	–	76.2	CCN(C(=O)c1cc(F)ccc1Oc1cncnc1N1CC2(CCN(C[C@H]3CC[C@@]4(CCC(=O)N4)CC3)CC2)C1)C(C)C [Example 1]
–	64.3	86.3	31.2	–	–	–	–	–	–	6.9	CC(C)N(C(=O)c1cc(F)ccc1Oc1cncnc1N1CC2(CCN(C[C@H]3CC[C@]4(CC3)CC(C)(C)C(=O)N4)CC2)C1)C1CCC1 [Example 25]
–	52	197	33	–	–	–	–	–	–	35.2	CC(C)N(C(=O)c1cc(F)ccc1Oc1nncnc1N1CC2(CCN(C[C@H]3CC[C@]4(CC3)CC(C)(C)C(=O)N4)CC2)C1)C1CC1 [Example 30]
–	63.6	179	39.3	–	–	–	–	–	–	17.8	CC(C)N(C(=O)c1cc(F)ccc1Oc1nncnc1N1CC2(CCN(C[C@H]3CC[C@]4(CC3)CC(C)(C)C(=O)N4)CC2)C1)C1CCC1 [Example 32]
–	42.4	88.9	2.9	–	–	–	–	–	–	17.2	CCN(C(=O)c1cc(F)ccc1Oc1nncnc1N1CC2(CCN(C[C@H]3CC[C@]4(CC3)CC(C(C)(C)O)C(=O)N4)CC2)C1)C(C)C (stereo partly drawn) [Example 58-1]
–	34.7	55.9	2.5	–	–	–	–	–	–	15.3	CC(C)N(C(=O)c1cc(F)ccc1Oc1nncnc1N1CC2(CCN(C[C@H]3CC[C@]4(CC3)CC(C(C)(C)O)C(=O)N4)CC2)C1)C(C)C (stereo partly drawn) [Example 59-1]
–	92.4	175	28.4	–	–	–	–	–	–	35	CCN(C(=O)c1cc(F)ccc1Oc1nncnc1N1CC2(CCN(C[C@H]3CC[C@]4(CC3)CC(=C(C)C)C(=O)N4)CC2)C1)C(C)C [Example 60]
–	72.1	108	25.5	–	–	–	–	–	–	23	CC(C)=C1C[C@]2(CC[C@@H](CN3CCC4(CC3)CN(c3ncnnc3Oc3ccc(F)cc3C(=O)N(C(C)C)C(C)C)C4)CC2)NC1=O [Example 61]
